Where no end group is shown, it is not given here.

From patent publication US20130345145A1, “ATIP3 AND BIOLOGICALLY ACTIVE FRAGMENTS THEREOF FOR USE IN THE TREATMENT OF CANCER” (INSTITUT NATIONAL DE LA SANTE ET DE LA RECHERCHE MEDICALE …, priority 2011, published 2013) come the findings set out here.

The subject of one assay is microtubule cytoskeleton. Briefly: Immunofluorescence intracellular localization in RPE1 cells. Type of assay: cell-based, Human. Conditions: RPE1 cells transfected 24 hrs, data not shown. The procedure: Immunofluorescence study was performed as example 2. Briefly, Human retinal pigment epithelial (RPE1) cells were transfected for 24 hrs with GFP-D2N, GFP-D2C or GFP-D2CC constructs prior to fixation in ice-cold methanol and incubation with anti-GFP antibodies as described (page 21, lines 1-9).

For another assay, the system named is MCF7 breast cancer cells. Briefly: Xcelligence cell proliferation of stable MCF7 clones. The format is cell-based. Conditions: clone D2CC3, MCF7, FIG. 13. As for the experimental part: Stable clones of MCF7 breast cancer cells expressing moderate levels of GFP-D2N (clones D2N6 and D2N8), GFP-D2C (clone D2C6 and a pool of positive cells) and GFP-D2CC (clone Cl3) have been selected in G418 (1 mg/ml)-containing medium for 4 weeks. Detectable expression of a single polypeptide of expected molecular weight in each case was confirmed by western blotting using anti-GFP antibodies.
Cell proliferation was measured using the Xcelligence technology (Roche). Briefly, cell clones were seeded at 15000 cells/well on 96 wells containing gold electrodes and cellular impedance was monitored in real-time for 40 hours.

For the substance “D2CC: domain of ATIP3BD, amino-acid positions 817-874 of SEQ ID NO: 1, 58 amino-acids polypeptide, expressed as GFP fusion (SGNAAVIKYEEKPPKPAFQNGSSGSFYLKPLVSRAHVHLMKTPPKGPSRKNLFTALNA; also: expressed as GFP fusion; listed as Homo sapiens)”, the intracellular localization result in the assay on microtubule cytoskeleton is recorded as “remains diffuse in the cytosol”. In addition, the “factor of reduction of proliferation as compared to clone expressing GFP-ATIP3” value in the assay on MCF7 breast cancer cells was determined as 2.
